Laboratory results taken from publication doi:10.1101/2025.02.15.638425v1, “Synthesis and Biological Evaluation of Nipecotic Acid Derivatives with Terminally Double-Substituted Allenic Spacers as mGAT4 Inhibitors” (biorxiv, 2025).

Assays:
[1] = biological target: T1, mGAT4 (Mus musculus, UniProt P31650); assay: [3H]GABA uptake, intact HEK293 cells; assay type: cell-based
T1 construct: gene Slc6a11; full-length transporter stably expressed in HEK293 cells
T1 sequence (P31650 1-627): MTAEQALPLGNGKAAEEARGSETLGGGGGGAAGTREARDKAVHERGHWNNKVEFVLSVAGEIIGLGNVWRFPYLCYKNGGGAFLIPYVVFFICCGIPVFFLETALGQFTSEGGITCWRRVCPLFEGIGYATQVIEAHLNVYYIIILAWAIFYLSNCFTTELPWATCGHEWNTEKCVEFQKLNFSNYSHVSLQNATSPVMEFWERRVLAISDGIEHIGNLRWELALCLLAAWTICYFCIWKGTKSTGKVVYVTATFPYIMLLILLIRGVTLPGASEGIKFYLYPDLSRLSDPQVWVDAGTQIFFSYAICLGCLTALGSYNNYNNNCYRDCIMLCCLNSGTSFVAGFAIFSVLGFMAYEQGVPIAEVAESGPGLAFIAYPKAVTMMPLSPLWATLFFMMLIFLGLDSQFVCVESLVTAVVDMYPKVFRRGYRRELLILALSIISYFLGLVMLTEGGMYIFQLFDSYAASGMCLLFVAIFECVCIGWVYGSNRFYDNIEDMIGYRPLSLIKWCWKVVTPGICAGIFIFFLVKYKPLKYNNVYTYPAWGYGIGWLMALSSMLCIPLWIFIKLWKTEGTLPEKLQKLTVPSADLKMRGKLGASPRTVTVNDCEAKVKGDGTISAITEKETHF

[2] = biological target: T2, hGAT-3 (Homo sapiens, UniProt P48066); assay: MS Transport Assay (GABA transport), COS-7 cells; assay type: cell-based
T2 construct: gene SLC6A11; full-length transporter stably expressed in COS-7 cells
T2 sequence (P48066 1-632): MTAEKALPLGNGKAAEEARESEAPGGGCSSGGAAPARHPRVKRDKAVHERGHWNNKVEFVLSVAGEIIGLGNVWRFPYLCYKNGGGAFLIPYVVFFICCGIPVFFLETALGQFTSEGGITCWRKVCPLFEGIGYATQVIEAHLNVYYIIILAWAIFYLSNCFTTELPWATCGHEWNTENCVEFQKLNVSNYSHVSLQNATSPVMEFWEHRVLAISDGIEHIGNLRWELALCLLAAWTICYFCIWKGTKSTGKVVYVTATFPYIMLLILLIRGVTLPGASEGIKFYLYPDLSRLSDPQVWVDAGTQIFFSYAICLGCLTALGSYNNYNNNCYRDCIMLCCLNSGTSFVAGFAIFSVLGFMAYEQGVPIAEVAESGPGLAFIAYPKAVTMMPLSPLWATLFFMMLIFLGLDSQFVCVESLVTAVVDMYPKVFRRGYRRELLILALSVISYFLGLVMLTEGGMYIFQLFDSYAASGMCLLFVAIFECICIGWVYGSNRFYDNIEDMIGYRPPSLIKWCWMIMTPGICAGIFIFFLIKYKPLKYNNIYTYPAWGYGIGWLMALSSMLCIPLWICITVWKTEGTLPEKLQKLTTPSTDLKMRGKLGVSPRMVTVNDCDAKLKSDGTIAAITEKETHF
Description: MS Transport Assay (GABA transport), COS-7 cells on hGAT-3

[3] = biological target: T3, mGAT2 (Mus musculus, UniProt P31651); assay: [3H]GABA uptake, intact HEK293 cells; assay type: cell-based
T3 construct: gene Slc6a12; full-length transporter stably expressed in HEK293 cells; mouse nomenclature, equivalent of hBGT-1
T3 sequence (P31651 1-614): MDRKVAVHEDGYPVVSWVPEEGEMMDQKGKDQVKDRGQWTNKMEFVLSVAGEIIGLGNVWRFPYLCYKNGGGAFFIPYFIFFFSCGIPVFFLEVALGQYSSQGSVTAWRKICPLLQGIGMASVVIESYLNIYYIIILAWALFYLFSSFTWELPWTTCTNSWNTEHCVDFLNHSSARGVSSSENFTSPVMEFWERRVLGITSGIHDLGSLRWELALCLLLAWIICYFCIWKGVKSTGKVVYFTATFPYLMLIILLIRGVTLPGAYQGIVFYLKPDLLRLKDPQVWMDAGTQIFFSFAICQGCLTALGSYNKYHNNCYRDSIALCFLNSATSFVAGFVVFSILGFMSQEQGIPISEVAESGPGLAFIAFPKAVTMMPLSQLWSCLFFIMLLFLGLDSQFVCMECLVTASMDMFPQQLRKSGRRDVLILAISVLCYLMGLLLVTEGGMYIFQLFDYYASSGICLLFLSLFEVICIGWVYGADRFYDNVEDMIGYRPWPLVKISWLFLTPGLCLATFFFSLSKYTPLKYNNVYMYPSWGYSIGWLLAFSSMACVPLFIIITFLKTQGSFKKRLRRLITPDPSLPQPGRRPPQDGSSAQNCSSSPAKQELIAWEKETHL
Description: [3H]GABA uptake, intact HEK293 cells on mGAT2

[4] = biological target: T4, mGAT3 (Mus musculus, UniProt P31649); assay: [3H]GABA uptake, intact HEK293 cells; assay type: cell-based
T4 construct: gene Slc6a13; full-length transporter stably expressed in HEK293 cells; mouse nomenclature, equivalent of hGAT-2
T4 sequence (P31649 1-602): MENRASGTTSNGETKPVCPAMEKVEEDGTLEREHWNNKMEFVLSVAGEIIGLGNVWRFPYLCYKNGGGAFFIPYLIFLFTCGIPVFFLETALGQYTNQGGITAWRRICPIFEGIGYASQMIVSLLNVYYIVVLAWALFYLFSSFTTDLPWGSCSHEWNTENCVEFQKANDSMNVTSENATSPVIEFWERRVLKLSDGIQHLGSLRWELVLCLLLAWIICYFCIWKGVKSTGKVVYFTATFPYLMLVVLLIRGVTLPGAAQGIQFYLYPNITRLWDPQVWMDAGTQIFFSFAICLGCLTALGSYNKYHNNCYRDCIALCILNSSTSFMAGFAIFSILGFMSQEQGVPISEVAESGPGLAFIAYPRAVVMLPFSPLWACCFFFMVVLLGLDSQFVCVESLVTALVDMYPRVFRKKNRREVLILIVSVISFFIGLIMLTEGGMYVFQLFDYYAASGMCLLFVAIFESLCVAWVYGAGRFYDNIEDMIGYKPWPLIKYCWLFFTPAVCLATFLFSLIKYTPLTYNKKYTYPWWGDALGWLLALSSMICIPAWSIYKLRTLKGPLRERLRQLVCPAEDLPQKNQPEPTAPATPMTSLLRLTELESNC
Description: [3H]GABA uptake, intact HEK293 cells on mGAT3

[5] = biological target: T5, mGAT1 (Mus musculus, UniProt P31648); assay: competitive MS Binding Assay, NO711 marker, HEK293 membranes
T5 construct: gene Slc6a1; full-length transporter stably expressed in HEK293 cells
Description: competitive MS Binding Assay, NO711 marker, HEK293 membranes on mGAT1

[6] = biological target: T5, mGAT1; assay: [3H]GABA uptake, intact HEK293 cells; assay type: cell-based
Description: [3H]GABA uptake, intact HEK293 cells on mGAT1

[7] = biological target: T1, mGAT4; assay: [3H]GABA uptake, intact HEK293 cells; assay type: cell-based; remark: listed apart in the source
Description: [3H]GABA uptake, intact HEK293 cells on mGAT4

IC50 [1] | IC50 [2] | IC50 [3] | IC50 [4] | Ki [5] | IC50 [6] | remaining activity at 100 µM [7] | remaining activity at 100 µM [4] | Structure (SMILES)
0.832 µM | 0.447 µM | 7.59 µM | 2.95 µM | 0.155 µM | 0.372 µM | – | – | O=C(O)C1CCCN(CC=C=C(c2ccc(Cl)cc2)c2ccc(Cl)cc2)C1 (racemic) [rac-8d]
4.47 µM | 1.66 µM | 6.46 µM | 8.32 µM | 1.23 µM | 5.01 µM | – | – | O=C(O)C1CCCN(CC=C=C(c2ccccc2)c2ccc(-c3ccccc3)cc2)C1 (racemic) [8f, rac-{(Ra)-1-[4-(1,1’-biphenyl-4-yl)-4-phenylbuta-2,3-dien-1-yl]-(3R)-piperidine-3-carboxylic acid} [rac-(3R,Ra)-8f] and rac-{(Sa)-1-[4-(1,1’-biphenyl-4-yl)-4-phenylbuta-2,3-dien-1-yl]-(3R)-piperidine-3-carboxylic acid}]
12.6 µM | 6.17 µM | 12.3 µM | 10.2 µM | 0.891 µM | 4.68 µM | – | – | O=C(O)C1CCCN(CCC=C=C(c2ccccc2)c2ccc(-c3ccccc3)cc2)C1 (racemic) [11f, rac-{(Ra)-1-[5-(1,1’-biphenyl-4-yl)-5-phenylpenta-3,4-dien-1-yl]-(3R)-piperidine-3-carboxylic acid} [rac-(3R,Ra)-11f] and rac-{(Sa)-1-[5-(1,1’-biphenyl-4-yl)-5-phenylpenta-3,4-dien-1-yl]-(3R)-piperidine-3-carboxylic acid}]
– | – | – | – | 3.24 µM | 12.9 µM | 63% | 50% | O=C(O)C1CCCN(CCC=C=C(c2ccc(F)cc2)c2ccc(F)cc2)C1 (racemic) [rac-11c, rac-{1-[5,5-Bis(4-fluorophenyl)penta-3,4-dien-1-yl]piperidine-3-carboxylic acid}]
2 µM | 2.4 µM | 15.8 µM | 4.17 µM | 0.102 µM | 0.155 µM | – | – | O=C(O)[C@@H]1CCCN(CC=C=C(c2ccc(Cl)cc2)c2ccc(Cl)cc2)C1 [(R)-8d]
– | – | – | – | 58.9 µM | 13.5 µM | 70% | – | COc1ccc2c(c1)CCCC2=C=CCN1CCCC(C(=O)O)C1 (racemic) [8g, rac-[(Ra)-1-{3-[6-methoxy-3,4-dihydronaphthalen-1(2H)-ylidene]allyl}-(3R)-piperidine-3-carboxylic acid] [rac-(3R,Ra)-8g] and rac-[(Sa)-1-{3-[6-methoxy-3,4-dihydronaphthalen-1(2H)-ylidene]allyl}-(3R)-piperidine-3-carboxylic acid]]
11.5 µM | – | 27.5 µM | 10.5 µM | 1.38 µM | 6.46 µM | – | – | Cc1ccc(C(=C=CCN2CCCC(C(=O)O)C2)c2ccc(C)cc2)cc1 (racemic) [rac-8b, rac-[1-(4,4-Di-p-tolylbuta-2,3-dien-1-yl)piperidine-3-carboxylic acid]]
83.2 µM | – | 81.3 µM | 58.9 µM | 1.58 µM | 14.1 µM | – | – | Cc1ccc(C(=C=CCCN2CCCC(C(=O)O)C2)c2ccc(C)cc2)cc1 (racemic) [rac-11b, rac-[1-(5,5-Di-p-tolylpenta-3,4-dien-1-yl)piperidine-3-carboxylic acid]]
0.257 µM | 0.324 µM | 4.07 µM | 1.1 µM | 2.51 µM | 1.35 µM | – | – | O=C(O)[C@H]1CCCN(CC=C=C(c2ccc(Cl)cc2)c2ccc(Cl)cc2)C1 [(S)-8d, (S)-1-[4,4-bis(4-chlorophenyl)buta-2,3-dien-1-yl]piperidine-3-carboxylic acid]
30.2 µM | – | 79.4 µM | 69.2 µM | 0.562 µM | 1.07 µM | – | – | O=C(O)C1CCCN(CC=C=C(c2ccc(F)cc2)c2ccc(F)cc2)C1 (racemic) [rac-8c, rac-{1-[4,4-Bis(4-fluorophenyl)buta-2,3-dien-1-yl]piperidine-3-carboxylic acid}]
– | – | – | – | 1.17 µM | 7.41 µM | 82% | – | O=C(O)C1CCCN(CC=C=C(c2ccccc2)c2ccccc2)C1 (racemic) [rac-8a, rac-[1-(4,4-Diphenylbuta-2,3-dien-1-yl)piperidine-3-carboxylic acid]]
17 µM | – | 12 µM | 28.2 µM | 0.631 µM | 1.91 µM | – | – | O=C(O)C1CCCN(CCC=C=C(c2ccc(Cl)cc2)c2ccc(Cl)cc2)C1 (racemic) [rac-11d, rac-{1-[5,5-Bis(4-chlorophenyl)penta-3,4-dien-1-yl]piperidine-3-carboxylic acid}]
– | – | 178 µM | 129 µM | 5.5 µM | 24.5 µM | 64% | – | O=C(O)C1CCCN(CCC=C=C(c2ccccc2)c2ccccc2)C1 (racemic) [rac-11a, rac-[1-(5,5-Diphenylpenta-3,4-dien-1-yl)piperidine-3-carboxylic acid]]
